Experiments:
Assay type in all cases: biochemical
PI3K-gamma = PI3K-gamma (Homo sapiens, UniProt P48736); test: PI3K-gamma fluorescence polarization assay; conditions: PI3Kγ Avg. IC50
Method in brief: (§1)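 Each isoform (5 ng) phosphorylated 2.5 μM diC8-PI(4,5)P2 at 25 μM ATP for one hour at 25° C in the presence of inhibitor. Reactions were then stopped with EDTA, and product was detected by fluorescence polarization using a GST-GRP1 PH domain and a BODIPY-TMR-labelled IP4 tracer.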

PI3K-alpha = PI3K-alpha (Homo sapiens, UniProt P42336); test: PI3K-alpha fluorescence polarization assay; conditions: read-out: PI3Kα Avg. IC50
PI3K-delta = PI3K-delta (Homo sapiens, UniProt O00329); test: PI3K-delta fluorescence polarization assay; conditions: read-out: PI3Kδ Avg. IC50
human TOR = target: T1, human TOR (Homo sapiens, UniProt P42345); test: mTOR enzyme assay (DELFIA, His6-S6K substrate); conditions: read-out: mTOR Kinase Avg. IC50
T1 construct: FLAG

PI3K-beta = PI3K-beta (Homo sapiens, UniProt P42338); test: PI3K-beta fluorescence polarization assay; conditions: read-out: PI3Kβ Avg. IC50
Method in brief: as §1

Chain of PI3K-alpha (P42336 whole entry, species assumed): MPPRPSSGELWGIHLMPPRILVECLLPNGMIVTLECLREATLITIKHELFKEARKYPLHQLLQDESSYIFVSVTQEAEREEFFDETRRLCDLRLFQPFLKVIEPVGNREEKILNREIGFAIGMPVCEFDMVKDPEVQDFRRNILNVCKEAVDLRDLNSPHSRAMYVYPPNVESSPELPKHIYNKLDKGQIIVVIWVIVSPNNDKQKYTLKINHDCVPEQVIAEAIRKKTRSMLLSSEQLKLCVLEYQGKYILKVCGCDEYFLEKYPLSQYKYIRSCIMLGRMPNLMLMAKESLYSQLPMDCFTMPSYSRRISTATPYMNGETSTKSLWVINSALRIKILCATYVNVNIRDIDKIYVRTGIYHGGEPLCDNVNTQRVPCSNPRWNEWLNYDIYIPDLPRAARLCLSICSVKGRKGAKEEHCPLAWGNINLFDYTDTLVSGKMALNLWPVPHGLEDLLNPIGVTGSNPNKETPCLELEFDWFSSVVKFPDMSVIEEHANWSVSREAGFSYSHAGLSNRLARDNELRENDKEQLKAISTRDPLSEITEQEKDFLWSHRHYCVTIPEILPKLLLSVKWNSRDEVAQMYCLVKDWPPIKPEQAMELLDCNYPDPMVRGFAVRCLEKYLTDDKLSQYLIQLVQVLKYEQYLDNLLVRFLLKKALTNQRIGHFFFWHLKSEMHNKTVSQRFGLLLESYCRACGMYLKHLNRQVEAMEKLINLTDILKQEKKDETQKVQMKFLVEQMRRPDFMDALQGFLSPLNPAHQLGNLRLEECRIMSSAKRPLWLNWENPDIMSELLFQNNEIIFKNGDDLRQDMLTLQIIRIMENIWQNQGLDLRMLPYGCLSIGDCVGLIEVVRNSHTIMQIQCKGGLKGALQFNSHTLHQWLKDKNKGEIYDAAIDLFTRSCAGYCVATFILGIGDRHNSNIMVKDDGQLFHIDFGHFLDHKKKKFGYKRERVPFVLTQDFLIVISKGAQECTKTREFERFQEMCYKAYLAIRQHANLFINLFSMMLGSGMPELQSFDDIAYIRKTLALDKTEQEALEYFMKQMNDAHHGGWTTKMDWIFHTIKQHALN
Chain of PI3K-alpha (P27986 whole entry partner, species assumed): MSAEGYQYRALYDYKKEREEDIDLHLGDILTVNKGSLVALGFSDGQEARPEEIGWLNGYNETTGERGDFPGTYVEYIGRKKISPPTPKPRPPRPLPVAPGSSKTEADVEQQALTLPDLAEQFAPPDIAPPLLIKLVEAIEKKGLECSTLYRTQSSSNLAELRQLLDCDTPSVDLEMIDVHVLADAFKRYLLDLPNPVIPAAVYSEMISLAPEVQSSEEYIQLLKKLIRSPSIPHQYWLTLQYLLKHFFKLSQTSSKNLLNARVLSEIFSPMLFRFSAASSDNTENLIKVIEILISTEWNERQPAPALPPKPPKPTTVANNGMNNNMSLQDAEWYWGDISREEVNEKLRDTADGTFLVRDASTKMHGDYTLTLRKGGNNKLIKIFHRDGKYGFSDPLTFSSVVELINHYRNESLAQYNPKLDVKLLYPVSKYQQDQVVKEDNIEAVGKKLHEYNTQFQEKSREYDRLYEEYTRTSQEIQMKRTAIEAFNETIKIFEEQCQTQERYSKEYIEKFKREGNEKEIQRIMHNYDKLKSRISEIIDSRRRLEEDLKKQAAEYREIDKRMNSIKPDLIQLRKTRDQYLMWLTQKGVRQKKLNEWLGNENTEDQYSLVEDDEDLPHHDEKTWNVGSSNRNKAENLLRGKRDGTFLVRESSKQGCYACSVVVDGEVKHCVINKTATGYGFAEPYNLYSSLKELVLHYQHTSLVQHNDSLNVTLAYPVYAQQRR
Chain of PI3K-gamma (P48736 whole entry, species assumed, the tested form may be a part, canonical isoform): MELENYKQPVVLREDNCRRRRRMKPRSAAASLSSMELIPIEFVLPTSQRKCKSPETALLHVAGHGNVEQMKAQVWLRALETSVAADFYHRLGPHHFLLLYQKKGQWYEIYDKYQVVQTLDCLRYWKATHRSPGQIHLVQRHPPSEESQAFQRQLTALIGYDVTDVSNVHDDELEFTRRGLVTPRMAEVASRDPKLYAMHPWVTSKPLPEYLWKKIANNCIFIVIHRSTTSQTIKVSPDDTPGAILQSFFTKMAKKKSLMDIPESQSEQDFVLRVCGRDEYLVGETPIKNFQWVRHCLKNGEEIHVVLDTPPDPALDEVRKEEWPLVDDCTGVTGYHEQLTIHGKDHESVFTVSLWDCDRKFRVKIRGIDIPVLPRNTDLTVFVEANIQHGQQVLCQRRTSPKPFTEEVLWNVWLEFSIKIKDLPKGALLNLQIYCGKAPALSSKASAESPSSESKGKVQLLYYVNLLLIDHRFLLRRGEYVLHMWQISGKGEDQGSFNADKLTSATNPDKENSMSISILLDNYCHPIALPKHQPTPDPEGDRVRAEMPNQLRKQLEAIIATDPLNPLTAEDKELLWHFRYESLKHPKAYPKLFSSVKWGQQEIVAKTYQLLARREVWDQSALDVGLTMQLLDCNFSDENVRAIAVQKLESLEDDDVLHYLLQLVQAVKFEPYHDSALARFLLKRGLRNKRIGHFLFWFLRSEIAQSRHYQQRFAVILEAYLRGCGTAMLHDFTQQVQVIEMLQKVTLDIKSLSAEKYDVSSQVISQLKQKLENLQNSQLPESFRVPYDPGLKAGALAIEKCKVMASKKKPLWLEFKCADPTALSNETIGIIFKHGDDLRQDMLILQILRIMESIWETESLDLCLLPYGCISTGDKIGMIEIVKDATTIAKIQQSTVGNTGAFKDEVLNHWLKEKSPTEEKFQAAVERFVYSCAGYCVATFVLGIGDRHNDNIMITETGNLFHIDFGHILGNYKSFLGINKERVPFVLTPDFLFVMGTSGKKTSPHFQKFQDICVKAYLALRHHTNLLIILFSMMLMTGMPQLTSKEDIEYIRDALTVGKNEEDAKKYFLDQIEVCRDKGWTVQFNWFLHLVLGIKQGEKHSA
Chain of PI3K-delta (O00329 whole entry, species assumed): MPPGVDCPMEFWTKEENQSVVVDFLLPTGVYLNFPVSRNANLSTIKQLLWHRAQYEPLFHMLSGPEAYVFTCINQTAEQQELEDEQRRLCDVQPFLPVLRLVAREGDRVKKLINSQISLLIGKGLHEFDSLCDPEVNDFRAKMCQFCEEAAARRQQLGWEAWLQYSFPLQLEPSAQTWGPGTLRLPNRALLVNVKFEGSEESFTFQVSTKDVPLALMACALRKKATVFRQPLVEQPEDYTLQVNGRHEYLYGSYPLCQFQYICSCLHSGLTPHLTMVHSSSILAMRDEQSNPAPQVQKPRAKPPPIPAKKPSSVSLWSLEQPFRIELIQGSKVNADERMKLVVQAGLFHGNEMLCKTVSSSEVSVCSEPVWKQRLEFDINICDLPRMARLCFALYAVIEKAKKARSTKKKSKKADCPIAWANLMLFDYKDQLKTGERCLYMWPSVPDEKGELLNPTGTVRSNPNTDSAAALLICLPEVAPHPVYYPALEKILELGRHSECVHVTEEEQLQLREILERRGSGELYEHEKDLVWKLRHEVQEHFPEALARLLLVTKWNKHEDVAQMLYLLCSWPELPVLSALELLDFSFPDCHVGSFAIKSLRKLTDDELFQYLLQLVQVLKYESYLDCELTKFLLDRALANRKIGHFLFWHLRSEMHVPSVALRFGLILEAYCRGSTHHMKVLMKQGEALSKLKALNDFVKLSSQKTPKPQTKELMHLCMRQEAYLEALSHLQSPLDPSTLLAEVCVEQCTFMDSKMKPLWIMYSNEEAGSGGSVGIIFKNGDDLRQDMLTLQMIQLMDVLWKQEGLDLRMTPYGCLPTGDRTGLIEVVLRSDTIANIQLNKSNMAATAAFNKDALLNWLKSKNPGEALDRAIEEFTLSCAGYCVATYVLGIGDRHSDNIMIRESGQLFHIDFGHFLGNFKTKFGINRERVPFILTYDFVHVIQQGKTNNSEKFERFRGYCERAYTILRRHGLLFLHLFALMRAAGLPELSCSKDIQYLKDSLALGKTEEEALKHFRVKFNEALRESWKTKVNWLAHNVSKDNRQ
Chain of PI3K-delta (P27986 whole entry partner, species assumed): as the sequence (P27986 whole entry partner, species assumed) above
Chain of PI3K-beta (P42338 whole entry, species assumed): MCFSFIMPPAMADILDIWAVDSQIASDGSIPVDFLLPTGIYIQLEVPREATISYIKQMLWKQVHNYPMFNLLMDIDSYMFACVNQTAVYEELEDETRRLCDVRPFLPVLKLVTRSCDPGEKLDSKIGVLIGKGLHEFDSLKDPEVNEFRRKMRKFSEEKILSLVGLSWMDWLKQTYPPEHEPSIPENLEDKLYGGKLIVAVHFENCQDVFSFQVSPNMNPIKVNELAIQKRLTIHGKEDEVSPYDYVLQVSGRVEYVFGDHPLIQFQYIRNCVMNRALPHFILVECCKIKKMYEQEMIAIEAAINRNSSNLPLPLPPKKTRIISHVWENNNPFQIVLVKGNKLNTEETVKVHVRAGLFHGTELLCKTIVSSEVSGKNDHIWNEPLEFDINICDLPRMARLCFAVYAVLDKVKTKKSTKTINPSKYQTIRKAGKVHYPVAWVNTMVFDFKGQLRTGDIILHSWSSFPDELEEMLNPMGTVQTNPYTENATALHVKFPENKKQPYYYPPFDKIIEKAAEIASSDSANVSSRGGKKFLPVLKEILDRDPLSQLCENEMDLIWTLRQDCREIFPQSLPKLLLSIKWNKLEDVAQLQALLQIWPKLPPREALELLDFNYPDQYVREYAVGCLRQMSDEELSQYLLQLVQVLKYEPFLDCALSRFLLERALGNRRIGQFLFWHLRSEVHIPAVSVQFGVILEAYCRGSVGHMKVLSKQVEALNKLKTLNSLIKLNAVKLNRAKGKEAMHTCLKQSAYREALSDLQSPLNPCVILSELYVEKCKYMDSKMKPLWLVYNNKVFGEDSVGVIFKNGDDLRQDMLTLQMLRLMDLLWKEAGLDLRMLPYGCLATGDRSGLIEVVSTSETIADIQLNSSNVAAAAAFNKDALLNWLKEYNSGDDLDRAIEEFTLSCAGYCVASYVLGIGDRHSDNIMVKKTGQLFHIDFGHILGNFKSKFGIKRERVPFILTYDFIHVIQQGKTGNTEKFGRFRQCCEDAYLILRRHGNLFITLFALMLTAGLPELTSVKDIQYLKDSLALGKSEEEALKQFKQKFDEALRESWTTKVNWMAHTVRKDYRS
Chain of PI3K-beta (P27986 whole entry partner, species assumed): as the sequence (P27986 whole entry partner, species assumed) above

| SMILES | IC50 (PI3K-gamma) | IC50 (PI3K-alpha) | IC50 (PI3K-delta) | IC50 (human TOR) | IC50 (PI3K-beta) |
| --- | --- | --- | --- | --- | --- |
| COc1ccc2c(c1)c(/C=C1\Oc3cc(O)cc(O)c3C1=O)cn2CCCN(C)C [Example 323, (2Z)-2-({1-[3-(Dimethylamino)propyl]-5-methoxy-1H-indol-3-yl}methylene)-4,6-dihydroxy-1-benzofuran-3(2H)-one] | 605 nM | 20.5 nM | 4 nM | 930 nM | 120 nM |
| COc1ccc2c(c1)c(/C=C1\Oc3cc(O)cc(O)c3C1=O)cn2CCN1CCC(O)C1 (centres unmarked) [Example 326, (2Z)-4,6-Dihydroxy-2-({1-[2-(3-hydroxypyrrolidin-1-yl)ethyl]-5-methoxy-1H-indol-3-yl}methylene)-1-benzofuran-3(2H)-one] | 150 nM | 58 nM | 9.5 nM | 540 nM | 88 nM |
| COc1ccc2c(c1)c(/C=C1\Oc3cc(O)cc(O)c3C1=O)c(-c1cnn(C)c1)n2CC(=O)N(C)C [Example 329, 2-{3-[(Z)-(4,6-Dihydroxy-3-oxo-1-benzofuran-2(3H)-ylidene)methyl]-5-methoxy-2-(1-methyl-1H-pyrazol-4-yl)-1H-indol-1-yl}-N,N-dimethylacetamide] | 130 nM | 12.5 nM | 18.5 nM | 39 nM | 51.6 nM |
| COc1ccc2c(c1)c(/C=C1\Oc3cc(O)cc(O)c3C1=O)c(C(F)(F)F)n2CC(=O)N(C)C [Example 333, 2-{3-[(Z)-(4,6-Dihydroxy-3-oxo-1-benzofuran-2(3H)-ylidene)methyl]-5-methoxy-2-(trifluoromethyl)-1H-indol-1-yl}-N,N-dimethylacetamide] | 159 nM | 66 nM | 51 nM | 53 nM | 203 nM |
| COc1ccc2c(c1)c(/C=C1\Oc3cc(O)ccc3C1=O)c(C(=O)N(C)C)n2CCN1CCN(C)CC1 [Example 335, 3-[(Z)-(6-Hydroxy-3-oxo-1-benzofuran-2(3H)-ylidene)methyl]-5-methoxy-N,N-dimethyl-1-[2-(4-methylpiperazin-1-yl)ethyl]-1H-indole-2-carboxamide] | 588 nM | 9 nM | 2 nM | 1650 nM | 22 nM |
| COc1ccc2c(c1)c(/C=C1\Oc3cc(O)cc(O)c3C1=O)c(C(F)(F)F)n2CCN1CCN(C)CC1 [Example 336, (2Z)-4,6-Dihydroxy-2-({5-methoxy-1-[2-(4-methylpiperazin-1-yl)ethyl]-2-(trifluoromethyl)-1H-indol-3-yl}methylene)-1-benzofuran-3(2H)-one] | 61.7 nM | 4 nM | 1 nM | < 22 nM | 4.1 nM |
| COc1ccc2c(c1)c(/C=C1\Oc3cc(O)cc(C)c3C1=O)c(C)n2CCN1CCN(C)CC1 [Example 338, (2Z)-6-Hydroxy-2-({5-methoxy-2-methyl-1-[2-(4-methylpiperazin-1-yl)ethyl]-1H-indol-3-yl}methylene)-4-methyl-1-benzofuran-3(2H)-one] | 666 nM | 22 nM | 3 nM | > 160 nM | 57.7 nM |
| COc1ccc2c(c1)c(/C=C1\Oc3cc(O)cc(O)c3C1=O)c(C(=O)N(C)C)n2CCCN(C)C [Example 343, 3-[(Z)-(4,6-Dihydroxy-3-oxo-1-benzofuran-2(3H)-ylidene)methyl]-1-[3-(dimethylamino)propyl]-5-methoxy-N,N-dimethyl-1H-indole-2-carboxamide] | 292 nM | 12 nM | 2.5 nM | > 160 nM | 71 nM |
| COc1ccc2c(c1)c(/C=C1\Oc3cc(O)cc(O)c3C1=O)c(-c1c(C)noc1C)n2CCN1CCN(C)CC1 [Example 344, (2Z)-2-({2-(3,5-Dimethylisoxazol-4-yl)-5-methoxy-1-[2-(4-methylpiperazin-1-yl)ethyl]-1H-indol-3-yl}methylene)-4,6-dihydroxy-1-benzofuran-3(2H)-one] | 99 nM | 4.4 nM | 0.9 nM | 5.25 nM | 5.9 nM |

Stronger by IC50 (PI3K-gamma), values ahead:

| IC50 (PI3K-gamma) | IC50 (PI3K-alpha) | IC50 (PI3K-delta) | IC50 (human TOR) | IC50 (PI3K-beta) | SMILES |
| --- | --- | --- | --- | --- | --- |
| 36.5 nM | 3 nM | 0.8 nM | 12.8 nM | 22 nM | COc1ccc2c(c1)c(/C=C1\Oc3cc(O)cc(O)c3C1=O)c(C)n2CCN1CCC(O)CC1 [Example 320, (2Z)-4,6-Dihydroxy-2-({1-[2-(4-hydroxypiperidin-1-yl)ethyl]-5-methoxy-2-methyl-1H-indol-3-yl}methylene)-1-benzofuran-3(2H)-one] |
| 15.5 nM | 2 nM | 1.8 nM | 6.85 nM | 10 nM | COc1ccc2c(c1)c(/C=C1\Oc3cc(O)cc(O)c3C1=O)c(C)n2CCO [Example 321, (2Z)-4,6-Dihydroxy-2-{[1-(2-hydroxyethyl)-5-methoxy-2-methyl-1H-indol-3-yl]methylene}-1-benzofuran-3(2H)-one] |
| 39 nM | 11 nM | 2.5 nM | < 30 nM | 9.5 nM | COc1ccc2c(c1)c(/C=C1\Oc3cc(O)cc(O)c3C1=O)c(C)n2CCN1CCC(O)C1 (centres unmarked) [Example 327, (2Z)-4,6-Dihydroxy-2-({1-[2-(3-hydroxypyrrolidin-1-yl)ethyl]-5-methoxy-2-methyl-1H-indol-3-yl}methylene)-1-benzofuran-3(2H)-one] |
| 15.5 nM | 6 nM | 2 nM | < 24 nM | 2.5 nM | COc1ccc2c(c1)c(/C=C1\Oc3cc(O)cc(O)c3C1=O)c(C)n2CCn1ccnc1 [Example 328, (2Z)-4,6-Dihydroxy-2-({1-[2-(1H-imidazol-1-yl)ethyl]-5-methoxy-2-methyl-1H-indol-3-yl}methylene)-1-benzofuran-3(2H)-one] |
| 3 nM | < 1.8 nM | 1.5 nM | < 17 nM | 1 nM | COc1ccc2[nH]c(-c3cnn(C)c3)c(/C=C3\Oc4cc(O)cc(O)c4C3=O)c2c1 [Example 330, (2Z)-4,6-Dihydroxy-2-{[5-methoxy-2-(1-methyl-1H-pyrazol-4-yl)-1H-indol-3-yl]methylene}-1-benzofuran-3(2H)-one] |
| 39.5 nM | 4 nM | 6.5 nM | 49.5 nM | 5.5 nM | COc1ccc2[nH]c(C(=O)N3CCN(C)CC3)c(/C=C3\Oc4cc(O)cc(O)c4C3=O)c2c1 [Example 331, (2Z)-4,6-Dihydroxy-2-({5-methoxy-2-[(4-methylpiperazin-1-yl)carbonyl]-1H-indol-3-yl}methylene)-1-benzofuran-3(2H)-one] |
| 22 nM | 5 nM | 7.8 nM | < 21 nM | 13.3 nM | COc1ccc2c(c1)c(/C=C1\Oc3cc(O)cc(O)c3C1=O)c(C(F)(F)F)n2CCO [Example 332, (2Z)-4,6-Dihydroxy-2-{[1-(2-hydroxyethyl)-5-methoxy-2-(trifluoromethyl)-1H-indol-3-yl]methylene}-1-benzofuran-3(2H)-one] |
| 2.2 nM | 1.3 nM | 1.5 nM | < 17 nM | 1.2 nM | COc1ccc2c(c1)c(/C=C1\Oc3cc(O)cc(O)c3C1=O)c(C1CC1)n2CCn1ccnc1 [Example 334, (2Z)-2-({2-Cyclopropyl-1-[2-(1H-imidazol-1-yl)ethyl]-5-methoxy-1H-indol-3-yl}methylene)-4,6-dihydroxy-1-benzofuran-3(2H)-one] |
| 7 nM | 13 nM | 9.7 nM | 20.5 nM | 75.3 nM | COc1ccc2c(c1)c(/C=C1\Oc3cc(O)cc(O)c3C1=O)c(C(F)(F)F)n2CCn1cccn1 [Example 337, (2Z)-4,6-Dihydroxy-2-({5-methoxy-1-[2-(1H-pyrazol-1-yl)ethyl]-2-(trifluoromethyl)-1H-indol-3-yl}methylene)-1-benzofuran-3(2H)-one] |
| 8.5 nM | 5.5 nM | 20.3 nM | 39.5 nM | 93.7 nM | COc1ccc2[nH]c(C(=O)O)c(/C=C3\Oc4cc(O)cc(O)c4C3=O)c2c1 [Example 339, 3-[(Z)-(4,6-Dihydroxy-3-oxo-1-benzofuran-2(3H)-ylidene)methyl]-5-methoxy-1H-indole-2-carboxylic acid] |
| 3 nM | 2 nM | 1.6 nM | < 0.82 nM | 7.5 nM | COc1ccc2c(c1)c(/C=C1\Oc3cc(O)cc(O)c3C1=O)c(C1CC1)n2CCn1cccn1 [Example 340, (2Z)-2-({2-Cyclopropyl-5-methoxy-1-[2-(1H-pyrazol-1-yl)ethyl]-1H-indol-3-yl}methylene)-4,6-dihydroxy-1-benzofuran-3(2H)-one] |
| 22.8 nM | 1.7 nM | 0.8 nM | 10.8 nM | 7.1 nM | COc1ccc2c(c1)c(/C=C1\Oc3cc(O)cc(O)c3C1=O)c(-c1cnn(C)c1)n2CCN1CCN(C)CC1 [Example 341, (2Z)-4,6-Dihydroxy-2-({5-methoxy-1-[2-(4-methylpiperazin-1-yl)ethyl]-2-(1-methyl-1H-pyrazol-4-yl)-1H-indol-3-yl}methylene)-1-benzofuran-3(2H)-one] |
| 32.5 nM | 4.3 nM | 1.5 nM | 6.7 nM | 16.3 nM | COc1ccc2c(c1)c(/C=C1\Oc3cc(O)cc(O)c3C1=O)c(C1CC1)n2CCN1CCC(O)C1 (centres unmarked) [Example 342, (2Z)-2-({2-Cyclopropyl-1-[2-(3-hydroxypyrrolidin-1-yl)ethyl]-5-methoxy-1H-indol-3-yl}methylene)-4,6-dihydroxy-1-benzofuran-3(2H)-one] |

— patent publication US20090311217A1, “3-SUBSTITUTED-1H-INDOLE COMPOUNDS, THEIR USE AS MTOR KINASE AND PI3 KINASE INHIBITORS, AND THEIR SYNTHESES” (priority 2008, published 2009)
